Experimental data published in US5064856A, “Novel HMG-CoA synthase inhibitors” (Merck & Co., Inc., priority 1989, dated 1991).

Target: T1, HMG-CoA synthase (Rattus norvegicus, UniProt P17425)
T1 construct: The livers from male Charles River CD rats (225-350 g) were homogenized in 0.25M sucrose; from tissue; host or cells: liver of male Charles River CD rats
T1 sequence (P17425 1-520): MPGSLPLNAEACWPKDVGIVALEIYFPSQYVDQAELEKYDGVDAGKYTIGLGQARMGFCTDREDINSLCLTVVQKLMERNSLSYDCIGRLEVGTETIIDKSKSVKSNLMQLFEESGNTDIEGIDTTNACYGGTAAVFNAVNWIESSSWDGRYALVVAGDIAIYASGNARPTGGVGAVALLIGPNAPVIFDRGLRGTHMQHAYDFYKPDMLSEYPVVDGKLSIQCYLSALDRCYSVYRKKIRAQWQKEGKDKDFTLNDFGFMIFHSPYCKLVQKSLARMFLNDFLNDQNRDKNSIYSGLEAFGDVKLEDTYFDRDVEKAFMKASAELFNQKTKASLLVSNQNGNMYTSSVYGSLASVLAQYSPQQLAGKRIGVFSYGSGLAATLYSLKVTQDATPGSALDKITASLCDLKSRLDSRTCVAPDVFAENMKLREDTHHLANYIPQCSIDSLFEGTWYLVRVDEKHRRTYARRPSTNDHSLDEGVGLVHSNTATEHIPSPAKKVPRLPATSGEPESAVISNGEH
Experiment: HMG-CoA synthase inhibition assay
Assay type: biochemical
Settings: enzyme from rat liver; 5 min preincubation, 30°, pH 8.0; [14C]-acetyl-CoA
Experimental: The intrinsic HMG--CoA synthase inhibition activity of the compounds of this invention is measured by the standard in vitro protocol described below:
The livers from male Charles River CD rats (225-350 g) were homogenized in 0.25M sucrose which was adjusted with phenylmethylsulfonylfluoride (PMSF) and N-p-tosyl-1-lysine chloromethyl ketone (TLCK) so that the final concentration of each was 50 and 25 μg/ml, respectively. The homogenate was first centrifuged at 700×g for 10 minutes, the supernatant decanted and recentrifuged at 7,700×g for 20 minutes. This supernatant was filtered through a fine nylon screen to remove most of the fat layer and recentrifuged at 100,000×g for 1 hour. This supernatant was removed and 1M potassium phosphate, dithiothreitol (DTT) and ethylene glycolbis(β-aminoethyl ether)-N,N,N',N'-tetraacetic acid (EGTA) added to give a final concentration of 0.1M (pH 7.2), 0.5 mM and 0.1 mM, respectively. Solid ammonium sulfate was added to 50% saturation to the protein solution, it was centrifuged at 15,000×g and the supernatant discarded. This precipitated protein could be stored at -70° C. for at least one month with very little loss of activity. The ammonium sulfate precipitate was dissolved in an minimal amount of 0.06M potassium phosphate buffer (pH 7.2) containing 0.5 mM dithiothreitol and 0.1 mM EGTA (referred to as 0.06M phosphate buffer) and dialyzed overnight against 2 liters of the same buffer to remove the ammonium sulfate and to inactivate HMG--CoA lyase [Clinkenbeard, et al., J. Biol. Chem. 250, 3108-3116 (1975)].
The dialyzed extract was added to a column of DEAE-52 (Whatman) which had been equilibrated with 0.06M phosphate buffer (10 mg of protein to 1 ml bed volume of the resin). The DEAE-cellulose was eluted with 0.06M phosphate buffer until the optical density at 280 nm was essentially zero. This fraction contained the β-ketoacetyl-CoA thiolase activity. The HMG--CoA synthase was eluted from the column with 0.1M KCl in 0.06M phosphate buffer (pH 7.2) containing 0.5 mM DTT and 0.1 mM EGTA, and was virtually free of all thiolase activity. The protein was precipitated by the addition of ammonium sulfate to give 50% saturation. This solution was stirred for 10 minutes at 4° C. and the precipitate collected by centrifugation at 15,000 rpm for 10 minutes. The supernatant was discarded and the precipitate dissolved in a minimum of 0.06M phosphate buffer, pH 7.2 (about 10 ml) and the enzyme stored at -80° C.
HMG-- CoA Synthase Inhibition Assay
Enzyme protein (ca. 12.2 μg) was added to a solution containing 117 mM Tris-HCl (pH 8.0), 11.7 mM MgCl2, 1.17 mM Ethylenediaminetetraacetic acid (EDTA), 0.58 mM dithiothreitol, and the indicated concentrations of the test compound (added as a 2 μg/ml solution in dimethylsulfoxide). The incubation took place in a volume of 0.085 ml at 30° in a shaking water bath. After 5 minutes, 15 μl of a solution containing acetoacetyl-CoA and 0.1 μCi of 1-[^14 C]-acetyl-CoA was added to give a final concentrations of 0.1 and 0.4 mM, respectively. […] Radioactivity was determined in a Packard Tri-Carb liquid scintillation counter. Percent inhibition is calculated by the formula: [formula] IC50 values were determined by plotting the log of the concentration of the test compound verses the percentage inhibition and fitting a straight line to the resulting data by using the least squares method.

| SMILES | IC50 |
| --- | --- |
| CC=CCCCCC=CC(=O)NC1CC2(OC1=O)C(O)C1OC1C1OC12 (centres unmarked) [Compound A] | 6900 nM |
| CC=CCCCCC=CC(=O)NC(CC1(O)C(=O)C2OC2C2OC21)C(=O)OC (stereo not drawn) [Compound B, 3,8-Dioxatricyclo(5.1.0.0^2,^4)octane-5-propanoic acid, 5-hydroxy-6-oxo-α-((1-oxo-2,8-decadienyl)amino)-, methyl ester] | 180 nM |
| CC=CCCCCC=CC(=O)NC1CC2(OC1=O)C(=O)C1OC1C1OC12 (centres unmarked) [Compound C] | 360 nM |

The next lines start with the values.

| IC50 | SMILES |
| --- | --- |
| > 10000 nM | CC=CCCCCC=CC(=O)NC1CC2(OC1=O)C(O)C1OC1C1OC12 (centres unmarked) [Compound A-1] |
| 2500 nM | CC=CCCCCC=CC(=O)NC1CC2(OC1=O)C(=O)C1OC1C(O)C2O (centres unmarked) [Compound A-2, N-(4,5-dihydro-4',5'-dihydroxy-2',5-dioxospiro[furan-2(3H),3'-[7]oxabicyclo[4.1.0]-hept]-4-yl)-2,8-decadienamide] |
